“And” between values parts separate entries of the source, which are not always exact repeats. Identical values can stand only once. Like-named read-outs stand apart in the source and are kept apart here.
Test system: HIV
Type: cell-based
Description: Combinations according to the invention were tested for anti-HIV activity in an HIV-infected MT4 cell assay as described in Averett, D. R., J. Virol. Methods, 23, 263-276 (1989). The cells were exposed to HIV for one hour prior to addition of antiviral component(s). Components were tested in serial 2.5-fold dilutions. After five days of incubation at 37° C., the cell number was determined. Inhibition of HIV-induced cytopathic effect was calculated, and synergism was determined by FIC plots as described by Elion, Singer, and Hitchings, J. Biol. Chem. 208, 477 (1954).
The fractional inhibitor concentrations (FIC) of zidovudine and cis-1-(2-(hydroxymethyl)-1,3-oxathiolan-5-yl)-5-fluorocytosine were calculated according to the method of Elion et al., supra (Table 1).

Structure (SMILES) | Fractional Inhibitor Concentration (FIC) | Fractional Inhibitor Concentration (FIC) (70% inhibition, combination of zidovudine 0.004 with Compound 1 2.5) | Fractional Inhibitor Concentration (FIC) (70% inhibition, combination of zidovudine 0.01 with Compound 1 2.0) | Fractional Inhibitor Concentration (FIC) (70% inhibition, combination of zidovudine 0.0256 with Compound 1 1.6) | Fractional Inhibitor Concentration (FIC) (70% inhibition, combination of zidovudine 0.06 with Compound 1 1.4)
Nc1nc(=O)n([C@@H]2CS[C@H](CO)O2)cc1F (relative stereo) [Compound 1, cis1-(2-(hydroxymethyl)-1,3-oxathiolan-5-yl)-5-fluorocytosine] | 0.48 and 0.38 and 0.31 and 0.26 | – | – | – | –
Cc1cn([C@H]2C[C@H](N=[N+]=[N-])[C@@H](CO)O2)c(=O)[nH]c1=O [Zidovudine, 3'-azido-3'-deoxythymidine] | – | 0.018 | 0.045 | 0.12 | 0.27

Source: patent US6107288A, “Antiviral nucleoside combination” (priority 1991, dated 2000)
